Measurements taken from article PMC11714696 (2024).

Tests used:
[1] = system: poly(A·U) (RNA, polymer) A/U; experiment: absorption titration, Benesi-Hildebrand; details: Na+ (25 mM NaCl, 10 mM sodium cacodylate); 10 mM cacodylate pH 7.0, 0.1 mM Na2EDTA; RNA concentration by ε260 14280; per base
[2] = system: poly(I·C) (RNA, polymer, inosine (hypoxanthine base) at every position of strand 1 (written as G)) G/C; experiment: UV melting at 260 nm; details: Na+ (25 mM NaCl, 10 mM sodium cacodylate); 10 mM cacodylate pH 7.0; 10 and 15 μM Nile blue; free Tm about 48.0 °C
[3] = system: poly(A·U) (RNA, polymer) A/U; experiment: UV melting at 260 nm; details: Na+ (25 mM NaCl, 10 mM sodium cacodylate); 10 mM cacodylate pH 7.0; 10 and 15 μM Nile blue; free Tm about 46.0 °C
[4] = system: poly(I·C) (RNA, polymer, inosine (hypoxanthine base) at every position of strand 1 (written as G)) G/C; experiment: fluorescence titration, Benesi-Hildebrand; details: Na+ (25 mM NaCl, 10 mM sodium cacodylate); 10 mM cacodylate pH 7.0, 0.1 mM Na2EDTA; RNA concentration by ε260 10000; per base
[5] = system: poly(I·C) (RNA, polymer, inosine (hypoxanthine base) at every position of strand 1 (written as G)) G/C; experiment: absorption titration, Benesi-Hildebrand; details: Na+ (25 mM NaCl, 10 mM sodium cacodylate); 10 mM cacodylate pH 7.0, 0.1 mM Na2EDTA; RNA concentration by ε260 10000; per base
[6] = system: poly(A·U) (RNA, polymer) A/U; experiment: fluorescence titration, Benesi-Hildebrand; details: Na+ (25 mM NaCl, 10 mM sodium cacodylate); 10 mM cacodylate pH 7.0, 0.1 mM Na2EDTA; RNA concentration by ε260 14280; per base

KBH [1]: 586000 M⁻¹
binding [2]: yes
binding [3]: yes
KBH [4]: 113000 M⁻¹
KBH [5]: 116000 M⁻¹
KBH [6]: 211000 M⁻¹
SMILES: CC[N+](CC)=c1ccc2nc3c(cc(N)c4ccccc43)oc-2c1
